Measurements published in patent US10981894B2, “Melanocortin subtype-2 receptor (MC2R) antagonists and uses thereof” (Crinetics Pharmaceuticals, Inc., priority 2018, dated 2021).

Biological target: hMC2 receptor (Homo sapiens, UniProt Q01718)
Assay: hMC2 membrane binding assay ([125I]ACTH (1-39) Tyr23, SPA)
Design: scale not given here
Settings: crude hMC2R membranes from CRE-bla-CHO-K1 cells expressing hMC2 receptor and hMRAP; [125I]ACTH (1-39) Tyr23 0.2 nM; 1.5 hours at room temperature; read-out: MC2R binding potency
Procedure, shortened: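 Ki comes from non-linear regression of SPA scintillation counts. Displacement of 0.2 nM [125I]ACTH(1-39) Tyr23 by compound dose series (usually 0–10,000 nM final) ran 1.5 h at room temperature. Membranes came from CHO-K1 CRE-bla cells stably expressing hMC2R plus hMRAP, bead-coupled in pH 7.4 buffer with 0.2% BSA.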

hMC2 receptor, sequence (Q01718 whole entry): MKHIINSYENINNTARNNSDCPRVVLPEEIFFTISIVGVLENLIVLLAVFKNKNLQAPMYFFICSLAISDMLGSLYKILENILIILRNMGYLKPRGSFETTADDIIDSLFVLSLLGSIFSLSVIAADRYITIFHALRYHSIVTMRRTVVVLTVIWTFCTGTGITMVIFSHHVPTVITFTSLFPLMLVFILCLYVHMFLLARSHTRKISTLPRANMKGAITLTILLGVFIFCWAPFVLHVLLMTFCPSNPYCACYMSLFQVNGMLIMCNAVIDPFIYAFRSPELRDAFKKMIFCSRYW
hMC2 receptor, sequence (Q8TCY5 whole entry partner): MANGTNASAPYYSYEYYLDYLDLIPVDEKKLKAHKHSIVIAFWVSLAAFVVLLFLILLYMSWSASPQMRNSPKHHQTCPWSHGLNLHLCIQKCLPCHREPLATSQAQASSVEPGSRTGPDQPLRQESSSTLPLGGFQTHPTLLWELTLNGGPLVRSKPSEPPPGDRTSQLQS

Compound	Ki [nM]
CCOc1ccccc1-c1ccc(N2CCN(C(=O)N3CCC[C@H]3C(F)(F)F)C[C@H]2CC)c(C(=O)N[C@H]2CCNC2)n1 [Compound 1-343, 6-(2-ethoxyphenyl)-3-[(2R)-2-ethyl-4-[(2S)-2-(trifluoromethyl)pyrrolidine-1-carbonyl]piperazin-1-yl]-N-[(3S)-pyrrolidin-3-yl]pyridine-2-carboxamide]	< 10
CCOc1ccccc1-c1ccc(N2CCN(C(=O)C3(C(F)(F)F)CCC3)C[C@H]2CC)c(C(=O)N[C@@H]2CCN(C)C2)n1 [Compound 1-344, 6-(2-ethoxyphenyl)-3-[(2R)-2-ethyl-4-[1-(trifluoromethyl)cyclobutanecarbonyl]piperazin-1-yl]-N-[(3R)-1-methylpyrrolidin-3-yl]pyridine-2-carboxamide]	< 10
CCOc1ncccc1-c1ccc(N2CCN(C(=O)N3CCC[C@H]3c3ccccc3)C[C@H]2CC)c(C(=O)N[C@@H]2CCNC2)n1 [Compound 1-345, 2′-ethoxy-5-[(2R)-2-ethyl-4-[(2S)-2-phenylpyrrolidine-1-carbonyl]piperazin-1-yl]-N-[(3R)-pyrrolidin-3-yl]-[2,3′-bipyridine]-6-carboxamide]	< 10
CCOc1ncccc1-c1ccc(N2CCN(C(=O)N3CCc4cccc(Cl)c43)C[C@H]2CC)c(C(=O)N[C@@H]2CCNC2)n1 [Compound 1-346, 5-[(2R)-4-(7-chloro-2,3-dihydro-1H-indole-1-carbonyl)-2-ethylpiperazin-1-yl]-2′-ethoxy-N-[(3R)-pyrrolidin-3-yl]-[2,3′-bipyridine]-6-carboxamide]	< 10
CCOc1ccccc1-c1ccc(N2CCN(C(=O)OC(C(C)(C)C)C(F)(F)F)C[C@H]2CC)c(C(=O)N[C@@H]2CCNC2)n1 (stereo partly drawn) [Compound 1-348, 1,1,1-trifluoro-3,3-dimethylbutan-2-yl (3R)-4-[6-(2-ethoxyphenyl)-2-{[(3R)-pyrrolidin-3-yl]carbamoyl}pyridin-3-yl]-3-ethylpiperazine-1-carboxylate]	< 10
CCOc1ccccc1-c1ccc(N2CCN(C(=O)C3(CC(F)(F)F)CCC3)C[C@H]2CC)c(C(=O)N[C@@H]2CCN(C)C2)n1 [Compound 1-349, 6-(2-ethoxyphenyl)-3-[(2R)-2-ethyl-4-[1-(2,2,2-trifluoroethyl)cyclobutanecarbonyl]piperazin-1-yl]-N-[(3R)-1-methylpyrrolidin-3-yl]pyridine-2-carboxamide]	< 10
CCOc1ncccc1-c1ccc(N2CCN(C(=O)N3CCc4cccc(F)c43)C[C@H]2CC)c(C(=O)N[C@@H]2CCNC2)n1 [Compound 1-350, 2′-ethoxy-5-[(2R)-2-ethyl-4-(7-fluoro-2,3-dihydro-1H-indole-1-carbonyl)piperazin-1-yl]-N-[(3R)-pyrrolidin-3-yl]-[2,3′-bipyridine]-6-carboxamide]	< 10
CCOc1ncccc1-c1ccc(N2CCN(C(=O)O[C@H](c3ccccc3)C(F)(F)F)C[C@H]2CC)c(C(=O)N[C@@H]2CCNC2)n1 [Compound 1-351, (1R)-2,2,2-trifluoro-1-phenylethyl (3R)-4-(2′-ethoxy-6-{[(3R)-pyrrolidin-3-yl]carbamoyl}-[2,3′-bipyridin]-5-yl)-3-ethylpiperazine-1-carboxylate]	< 10
CCOc1ncccc1-c1ccc(N2CCN(C(=O)C3(c4ccccc4)CCCC3)C[C@H]2CC)c(C(=O)N[C@@H]2CCNC2)n1 [Compound 1-352, 2′-ethoxy-5-[(2R)-2-ethyl-4-(1-phenylcyclopentanecarbonyl)piperazin-1-yl]-N-[(3R)-pyrrolidin-3-yl]-[2,3′-bipyridine]-6-carboxamide]	< 10
CCOc1ncccc1-c1ccc(N2CCN(C(=O)C3(c4ccccc4)CCC3)C[C@H]2CC)c(C(=O)N[C@@H]2CCNC2)n1 [Compound 1-353, 2′-ethoxy-5-[(2R)-2-ethyl-4-(1-phenylcyclobutanecarbonyl)piperazin-1-yl]-N-[(3R)-pyrrolidin-3-yl]-[2,3′-bipyridine]-6-carboxamide]	< 10
CCOc1ncccc1-c1ccc(N2CCN(C(=O)C34CCC(CC3(F)F)C4(C)C)C[C@H]2CC)c(C(=O)N[C@@H]2CCNC2)n1 (stereo partly drawn) [Compound 1-354, 5-[(2R)-4-[2,2-difluoro-7,7-dimethylbicyclo[2.2.1]heptane-1-carbonyl]-2-ethylpiperazin-1-yl]-2′-ethoxy-N-[(3R)-pyrrolidin-3-yl]-[2,3′-bipyridine]-6-carboxamide]	< 10
CCOc1ccccc1-c1ccc(N2CCN(C(=O)N3CCC[C@@H]3C(C)(C)C)C[C@H]2CC)c(C(=O)N[C@@H]2CCNC2)n1 [Compound 1-356, 3-[(2R)-4-[(2R)-2-tert-butylpyrrolidine-1-carbonyl]-2-ethylpiperazin-1-yl]-6-(2-ethoxyphenyl)-N-[(3R)-pyrrolidin-3-yl]pyridine-2-carboxamide]	< 10
CCOc1ncccc1-c1ccc(N2CCN(C(=O)c3ccc(Cl)cc3C(F)(F)F)C[C@H]2CC)c(C(=O)NCCN2CC(F)C2)n1 [Compound 1-357, 5-[(2R)-4-[4-chloro-2-(trifluoromethyl)benzoyl]-2-ethylpiperazin-1-yl]-2′-ethoxy-N-[2-(3-fluoroazetidin-1-yl)ethyl]-[2,3′-bipyridine]-6-carboxamide]	< 10
CCOc1ncccc1-c1ccc(N2CCN(C(=O)C3(c4ccccc4)CCC3)C[C@H]2CC)c(C(=O)N[C@@H]2CCN(C)C2)n1 [Compound 1-358, 2′-ethoxy-5-[(2R)-2-ethyl-4-(1-phenylcyclobutanecarbonyl)piperazin-1-yl]-N-[(3R)-1-methylpyrrolidin-3-yl]-[2,3′-bipyridine]-6-carboxamide]	< 10
CCOc1ncccc1-c1ccc(N2CCN(C(=O)N3CCc4cccc(C)c43)C[C@H]2CC)c(C(=O)N[C@@H]2CCNC2)n1 [Compound 1-360, 2′-ethoxy-5-[(2R)-2-ethyl-4-(7-methyl-2,3-dihydro-1H-indole-1-carbonyl)piperazin-1-yl]-N-[(3R)-pyrrolidin-3-yl]-[2,3′-bipyridine]-6-carboxamide]	< 10
CCOc1ncccc1-c1ccc(N2CCN(C(=O)N3CCc4cccc(C(F)(F)F)c43)C[C@H]2CC)c(C(=O)N[C@@H]2CCNC2)n1 [Compound 1-361, 2′-ethoxy-5-[(2R)-2-ethyl-4-[7-(trifluoromethyl)-2,3-dihydro-1H-indole-1-carbonyl]piperazin-1-yl]-N-[(3R)-pyrrolidin-3-yl]-[2,3′-bipyridine]-6-carboxamide]	< 10
CCOc1ccccc1-c1ccc(N2CCN(C(=O)N3CCC[C@H]3C(F)(F)F)C[C@H]2CC)c(C(=O)NCC2CN(C)C2)n1 [Compound 1-362, 6-(2-ethoxyphenyl)-3-[(2R)-2-ethyl-4-[(2S)-2-(trifluoromethyl)pyrrolidine-1-carbonyl]piperazin-1-yl]-N-[(1-methylazetidin-3-yl)methyl]pyridine-2-carboxamide]	< 10
CCOc1ncccc1-c1ccc(N2CCN(C(=O)C3(C(F)(F)F)CCCC3)C[C@H]2CC)c(C(=O)N[C@H]2CCN(C)C2)n1 [Compound 1-363, 2′-ethoxy-5-[(2R)-2-ethyl-4-[1-(trifluoromethyl)cyclopentanecarbonyl]piperazin-1-yl]-N-[(3S)-1-methylpyrrolidin-3-yl]-[2,3′-bipyridine]-6-carboxamide]	< 10
